Legend:
RhoA-LARG interaction = target: T1, RhoA-LARG interaction (Homo sapiens, UniProt Q9NZN5); assay: In vitro complex formation assay, LARG binding to RhoA; conditions: for inhibition at 100 µM: read-out: Relative binding inhibition, %
T1 construct: human LARG (residues 765-1,138); made in house; host or cells: E. coli BL21 (DE3) (LARG), E. coli DH5α (GST-RhoA)
T1 sequence (Q9NZN5 765-1138 limits assumed): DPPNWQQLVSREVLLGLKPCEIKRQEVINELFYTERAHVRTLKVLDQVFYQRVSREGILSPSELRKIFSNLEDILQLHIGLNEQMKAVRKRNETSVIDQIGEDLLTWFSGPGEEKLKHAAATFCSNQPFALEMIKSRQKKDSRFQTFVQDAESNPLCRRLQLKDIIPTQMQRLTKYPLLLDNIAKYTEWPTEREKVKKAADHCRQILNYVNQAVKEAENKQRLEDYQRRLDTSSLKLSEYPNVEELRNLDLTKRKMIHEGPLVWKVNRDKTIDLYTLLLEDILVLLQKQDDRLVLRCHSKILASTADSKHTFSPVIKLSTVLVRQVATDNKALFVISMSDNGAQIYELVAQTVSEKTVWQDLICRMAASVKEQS
Protocol: About 1 μg of (His)6-tagged LARG DH-PH was incubated with 1 μg of EDTA-treated GSTRhoA or Cdc42 or GST alone in a binding buffer [20 mM Tris.HCl (pH 7.6), 100 mM NaCl, 1% BSA, 1% Triton X-100, 1 mM MgCl2] containing 15 μL of suspended glutathione-agarose beads. Y16 or other chemicals were added in the incubation buffer at the indicated concentrations. After an incubation at 4° C. for 1 h under constant agitation, the glutathione beads were washed twice with the binding buffer. The amount of (His)6-tagged protein coprecipitated with GST-fusion bound beads was detected by anti-His Western blotting. Similarly, cell lysates containing myc-Tiam1, (His)6-Cdc42, (His)6-TrioN, or (His)6-RhoA were mixed with purified GST-Rac1, GST-Cdc42, GST-mDia, GST-PKN, GSTROCKII, GST-p190GAP, or GST alone, and pairwise association was assessed in the presence or absence of indicated amount of Y16 and/or Rhosin.
The information in FIG. 4 was obtained by the following procedures. (A) Dose-dependent specific inhibition of LARG binding to RhoA by Y16, G04, or G04+Y16 combination at varying concentrations. (B) NIH 3T3 cells were treated with Y16, G04, or G04+Y16 combination at the indicated concentrations for 24 h in serum-free media. Cells were subsequently stimulated with 10% calf serum for 15 min and were subjected to GST-Rhotekin effector domain pull-down assays, and the activities of RhoA were examined. Relative amounts of GTP-bound form of the GTPases were quantified by densitometry measurements and normalized to those of the unstimulated cells. (C) NIH 3T3 cells were treated with Y16, G04, or G04+Y16 combination at the indicated concentrations for 24 h in serum-free media. Cells were subsequently stimulated with 10% calf serum for 15 min and were subjected to GST-Rhotekin and GST-PAK1 effector domain pull-down assays, and the activities of RhoA, Cdc42, and Rac1 were examined. Relative amounts of GTP-bound form of the GTPases were quantified by densitometry measurements and normalized to those of the nontreated cells. (D) NIH 3T3 cells were treated with Y16, G04, or G04+Y16 combination of the indicated concentrations in serum-free DMEM medium prior to stimulation with LPA (20 ng/mL) for 10 min. The cells were stained with rhodamine-phalloidin to reveal F-actin structures.
The inhibitory effects of the analogs were tested in a complex formation assay. (His)6-tagged LARG PH-DH (1 μg) was incubated with GST alone or GST-RhoA conjugated with glutathione agarose beads in the presence or absence of 100 μM indicated compounds. After an incubation at 4° C. for 1 h, the beads-associated (His)6-LARG PH-DH was detected by anti-His Western blotting. The relative inhibition of each analog was normalized to the inhibitory effect of Y16 of the same concentration.

RhoA = RhoA (Homo sapiens, UniProt P61586); conditions: reference 26; cited from earlier work
RhoA, sequence (P61586 whole entry): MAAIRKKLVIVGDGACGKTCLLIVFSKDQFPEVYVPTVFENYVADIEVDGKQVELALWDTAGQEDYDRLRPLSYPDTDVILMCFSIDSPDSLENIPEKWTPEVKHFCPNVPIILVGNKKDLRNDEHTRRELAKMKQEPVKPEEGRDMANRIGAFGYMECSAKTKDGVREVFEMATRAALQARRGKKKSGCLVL

RhoA-GTP [1] = assay: Endogenous Rho GTPase activity assay, RhoA-GTP in NIH 3T3 cells; type: cell-based; conditions: Mus musculus, NIH3T3, serum stimulated, acting alone at 30 μM, read-out: inhibition of RhoA-GTP content
Protocol: The information in FIG. 3 was obtained by the following procedures. (A and B) NIH 3T3 cells were treated with Y16 at the indicated concentrations for 24 h in serum-free media. Cells were subsequently stimulated with 10% calf serum for 15 min and were subjected to GST-Rhotekin or GST-PAK1 effector domain pull-down assays, and the activities of RhoA, Cdc42, and Rac1 were examined. Relative amounts of GTP-bound form of the GTPases were quantified by densitometry measurements and normalized to those of the unstimulated cells. […]
NIH 3T3 cells, MCF7 cells, or HME cells were grown in log phase in a 10-cm dish or a six-well dish, and were starved in serum-free medium in the presence or absence of Y16 at indicated concentrations for 24 h and were subsequently stimulated with 10% calf serum or FBS for 15 min. […] Lysates were clarified, the protein concentrations were normalized, and the GTP-bound RhoA, Rac1, or Cdc42 in the lysates were measured by respective anti-RhoA, Rac1, and Cdc42 Western blotting of the effector domain pull downs.
The information in FIG. 4 was obtained by the following procedures. […] Relative amounts of GTP-bound form of the GTPases were quantified by densitometry measurements and normalized to those of the unstimulated cells. […] Relative amounts of GTP-bound form of the GTPases were quantified by densitometry measurements and normalized to those of the nontreated cells. […]

RhoA-GTP [2] = assay: RhoA activity in MCF7-derived mammospheres; type: cell-based; conditions: alone at 10 μM
Protocol: The information in FIG. 5 was obtained by the following procedures. (A) Y16, G04, or G04+Y16 combination inhibits MCF7 breast cell growth. MCF7 cells were plated at 1.5×10^4/24 well in the presence of Y16, G04, or G04+Y16 combination. Cell numbers were determined at the indicated times. (B) MCF7 cells were subjected migration assays in the presence of Y16, G04, or G04+Y16 combination. (C) The invasive activities were assayed in a Matrigel-coated transwell. (D) Y16, G04, or G04+Y16 combination inhibits RhoA and its downstream signaling activities in MCF7-derived mammospheres. (Upper) MCF7-derived mammospheres were treated with Y16, G04, or G04+Y16 combination at the indicated concentrations. Spheres were collected, and the RhoA activity was examined. Relative amounts of GTP-bound form of RhoA were quantified by densitometry measurements and normalized to those of the untreated cells. (Lower) Western blots are of p-MLC of MCF7-derived mammospheres. Y16, G04, or G04+Y16 combination inhibits MCF-7 cell-derived mammosphere formation. (E) MCF-7 cells were treated with Y16, G04, or G04+Y16 combination at the indicated concentrations for 24 h in serum-free media. MCF7 cells were dissociated to single cells with trypsin and cultured for 10 d at the density of 2×10^4/mL in suspension in the media containing G04 or Y16 at the indicated concentration. Photographs were taken after a 10-d culture. […]

[3] = 100 μM compound, normalized to the inhibitory effect of Y16 of the same concentration

| Structure (SMILES) | inhibition at 100 µM (RhoA-LARG interaction; [3]) [%] | further results |
| --- | --- | --- |
| COc1cc(/C=C2/C(=O)NN(c3ccccc3)C2=O)cc(Br)c1OCCOc1ccc(C)cc1 [Compound 4] | 13.8 |  |
| O=C1/C(=C\c2ccccc2OCc2ccccc2)CNN1c1ccc(Br)cc1 [Compound 5] | 7.34 |  |
| N[C@H](Cc1c[nH]c2ccccc12)C(=O)N/N=C/c1ccc2nccnc2c1 [Compound G04, (2R)-2-amino-3-(1Hindol-3-yl)-N′-[(1E)-quinoxalin-6-ylmethylidene]propanehydrazide] |  | binding affinity to RhoA (RhoA): micromolar; inhibition at 30 µM (RhoA-GTP [1]): ~80%; IC50 (RhoA-LARG interaction; inhibitors alone or combined together, read-out: IC50 for inhibition of RhoA binding to LARG): ~10 µM; inhibition at 10 µM (RhoA-GTP [2]): ~50% |

Continued, in another order:

| inhibition at 100 µM (RhoA-LARG interaction; [3]) [%] | Structure (SMILES) | further results |
| --- | --- | --- |
| 27.1 | O=C1NN(c2ccccc2)C(=O)/C1=C/c1ccc(OCc2ccccc2)cc1 [Compound 1] | Relative binding inhibition, % (RhoA-LARG interaction; 100 μM compound, normalized to the inhibitory effect of Y16 of the same concentration, 100 µM): 27.12% |
| 13 | COc1cc(/C=C2/C(=O)NN(c3ccccc3)C2=O)ccc1O [Compound 2] |  |
| 6.75 | O=C1NN(c2ccccc2)C(=O)/C1=C\C1=NCc2ccccc21 [Compound 3] |  |

Source: patent US9951024B2, “Small-molecule inhibitors targeting G-protein-coupled Rho guanine nucleotide exchange factors” (Children's Hospital Medical Center, priority 2013, dated 2018)
